We go through 32 compounds from PubChem BioAssay (NCI).

What all share (assay): NCI-60 cell line screen, 48 h
The test system of assay [1] is SNB-78 CNS.
Assay [2] deals with LXFL 529 NSCLC.
In assay [3] the test system is HOP-18 NSCLC.
For assay [4], the system named is DMS 114 small cell lung.
Assay [5] relates to TK-10 renal.
In assay [6] the test system is DLD-1 colon.
In assay [7] the test system is DMS 273 small cell lung.
The subject of assay [8] is XF 498 CNS.
Assay [9] relates to KM20L2 colon.
Assay [10] concerns M19-MEL melanoma.

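Cells were grown in 96-well plates and exposed to each compound for 48 hours at five concentrations; endpoints were interpolated linearly between bracketing concentrations, or set to the highest concentration if not reached. Abbreviation: GI50, concentration required for 50% inhibition of growth. TGI: total growth inhibition.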 Where a SMILES comes first, the peptide text is derived from it. Bridges are numbered along the chain shown (N, C = ends). [ ]: non-standard residue; d: D form. The star is where a group is joined. Cbz = O=C(OCc1ccccc1)*; Aib = CC(C)(N)C(=O)O; OBn = c1ccc(CO*)cc1; βAla = NCCC(=O)O Bounds are passed on as bounds.

For the compound `CC(=O)OC1CC2OC(Cc3ccccc32)O1` (stereo not given), the TGI in assay [1] is more than 100 µM; in assay [2] it was more than 100 µM; in assay [3] it was 94.9 µM; in [4], more than 100 µM; in assay [5] it was more than 100 µM; in assay [6], more than 100 µM. Besides, the TGI in assay [7], in assay [8], in assay [9] and in assay [10] was more than 100 µM throughout.

Regarding `CN(C)/N=C(\CCN1CCCC1)CC(c1ccccc1)c1c(O)c2ccccc2oc1=O` (stereo not given), the TGI in assay [2], in assay [5], in assay [6], in assay [8], in assay [9] and in assay [10] was more than 100 µM throughout.

As to `CC1=CC(=O)NCCN1C`, the TGI in assay [1], in [2], in assay [3], in [4], in assay [5] and in assay [6] was more than 100 µM each time. Further, the TGI in [7], in assay [8], in assay [9] and in assay [10] was more than 100 µM throughout.

As for `CC(=O)c1cccc2c1CC1(C2)Cc2ccc3c(c2C1=O)CCC3` (stereo not given), in assay [5], the TGI worked out at 77.6 µM.

`O=C1NC(Nc2cccc(Cl)c2)=N/C1=C\c1ccc(Cl)c(Cl)c1`: the TGI in assay [5] came out at 22.4 µM.

`CO/N=C(\C(=O)Nc1cncs1)c1csc(NC(c2ccccc2)(c2ccccc2)c2ccccc2)n1` displayed a TGI in assay [5] of more than 10 µM.

With `O=P(c1ccccc1)(c1ccccc1)C(NCc1ccccc1)c1ccc(F)cc1` (stereo not given), the TGI in assay [5] was 32 µM.

`C=CCN1C(=O)/C(=C/c2ccccc2)NC1=S` displayed a TGI in assay [5] of more than 100 µM.

For `COc1ccccc1N1C(=O)/C(=C\c2cccc(Oc3ccccc3)c2)SC1c1ccccc1` (stereo not given), the TGI in [5] was more than 100 µM.

On to `CCOC(=O)CC(NC(=O)c1nc[nH]c1[N+](=O)[O-])C(=O)OCC` (stereo not given), for which the TGI in assay [2] was more than 100 µM; in assay [4] it was more than 100 µM; in assay [5] it was 94.1 µM; in assay [6], more than 100 µM; in [7], more than 100 µM; in assay [10], more than 100 µM.

As to `Cc1ccc(S(=O)(=O)OC2C3OC(C)(C)OC3OC2C(c2cc(O)c3c(c2O)C(=O)c2ccccc2C3=O)c2cc(O)c3c(c2O)C(=O)c2ccccc2C3=O)cc1` (stereo not given), the TGI in [5] is more than 10 µM.

For the compound `CCCCCCCCCCCCCCCCCc1cccc(OCOCCOC)c1CO`, the TGI in assay [5] is more than 100 µM.

`COc1ccc2c(c1)OCc1c-2oc2ccccc2c1=O` gave a TGI in [5] of more than 100 µM.

In the case of `CCOC(=O)C(Cl)(NC(=O)c1ccc(F)cc1)C(F)(F)F` (stereo not given), in assay [5], the TGI is more than 100 µM.

In the case of `COc1cc(C2c3cc4c(cc3[C@@H](Nc3ccccc3)C3CO[C@@H](OC)[C@H]23)OCO4)cc(OC)c1O` (stereo not given in full), the TGI in assay [5] was more than 25 µM.

`O=c1c2ccccc2nnn1-c1n[nH]c2ccccc12` gave a TGI in assay [5] of more than 100 µM.

Turning to `Clc1ccc2c(NCCCCN=Cc3ccccc3)ccnc2c1`, the TGI in assay [5] came out at 64 µM.

Take `Nc1nc(Cl)cc(NCC2(CO)COC2)n1`: the TGI in assay [5] was more than 100 µM.

As for `COC12C=CC(CC1)C(C)(C)C2=O` (stereo not given), in assay [5], the TGI is more than 100 µM.

`Cc1nc(N)c(N2CCNCC2)c(=O)[nH]1` gave a TGI in assay [5] of more than 100 µM.

For `N#[O+].O=S(=O)([O-])[O-].[NH2-].[NH2-].[NH2-].[NH2-].[NH2-].[Ru+5]`, the TGI in assay [1], in assay [2], in assay [5], in assay [6] and in assay [9] was more than 100 µM throughout. Moreover, in assay [2], the GI50 is more than 100 µM.

Regarding `CC(=O)NCc1nc(C#N)c(N)o1`, the TGI in assay [5] is more than 100 µM.

In assay [5], `CCOC(=O)c1c(SC(=O)/C=C/c2ccccc2)n(-c2ccccc2)c(=S)n(-c2ccccc2)c1=O` showed a TGI of more than 100 µM.

In the case of `Clc1cccc(Cl)c1C1SCC2=Nc3ccccc3CN21` (stereo not given), in assay [5], the TGI was more than 100 µM.

For the compound `Cc1cc(O)c(/C=N/C(=S)NCCc2ccccc2)c(=O)o1`, the TGI in assay [5] is more than 100 µM.

For the compound `CC/C(=N/O)c1ccc(Br)s1`, in assay [5], the TGI is more than 100 µM.

Take `S=C1Cc2c([nH]c3ccccc23)-c2ccccc2N1`: in assay [5], the TGI stood at 52.9 µM.

`CC1CN=C(Nc2ccc(S(N)(=O)=O)cc2)S1` (stereo not given): in [5], the TGI is more than 100 µM.

With `COc1ccc(OC)c2c1C(=O)C(Cl)=C(N1CCN(CCOCCO)CC1)C2=O`, in assay [5], the TGI amounted to 33.4 µM.

In [5], `CC1(C)NC(=O)C(NC(=O)C(CC(=O)OCc2ccccc2)NC(=O)OCc2ccccc2)CCCCNC(=O)CCNC1=O` (stereo not given) (Cbz-D(OBn)K[Aib][βAla]; lactam 2-C; configuration not given here) gave a TGI of more than 100 µM.

`S=C(/N=c1/sc(Nc2ccccc2)nc2sc3c(c12)CCCC3)Nc1ccccc1` showed a TGI in [5] of more than 62.5 µM.

`O=C(CCc1ccc(O)cc1)NCCc1ccc(O)cc1`: the TGI in assay [5] was more than 100 µM.
